Results reported in paper PMC11053168, “Agonist-selective activation of individual G-proteins by muscarinic receptors” (Scientific Reports, 2024).
Read-outs that look alike come from different tables or passages of the source.

Legend:
M3 muscarinic receptor = target: T1, M3 muscarinic receptor (Homo sapiens, UniProt P20309); assay: [3H]NMS competition binding, membranes from CHO cells expressing M3; conditions: competition with [3H]NMS, mean ± SD, three experiments, read-out: Binding affinity, negative logarithm of Ki (converted)
T1 construct: membranes
T1 sequence (P20309 whole entry): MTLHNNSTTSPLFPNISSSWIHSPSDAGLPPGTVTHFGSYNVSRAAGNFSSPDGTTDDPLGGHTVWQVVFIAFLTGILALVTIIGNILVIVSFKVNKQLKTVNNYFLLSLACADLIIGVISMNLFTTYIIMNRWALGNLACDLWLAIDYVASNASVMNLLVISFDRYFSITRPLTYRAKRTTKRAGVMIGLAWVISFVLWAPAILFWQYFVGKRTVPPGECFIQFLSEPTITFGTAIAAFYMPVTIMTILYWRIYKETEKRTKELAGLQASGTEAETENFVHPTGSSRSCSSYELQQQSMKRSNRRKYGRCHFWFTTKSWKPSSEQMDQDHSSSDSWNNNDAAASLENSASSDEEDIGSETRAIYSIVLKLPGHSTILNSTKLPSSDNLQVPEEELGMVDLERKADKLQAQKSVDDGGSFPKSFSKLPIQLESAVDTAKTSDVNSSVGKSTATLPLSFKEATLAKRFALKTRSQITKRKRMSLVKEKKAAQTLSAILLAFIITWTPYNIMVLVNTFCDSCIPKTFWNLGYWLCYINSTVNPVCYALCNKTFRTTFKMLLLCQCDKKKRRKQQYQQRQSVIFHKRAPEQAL
Protocol: (§1) Cells were cultured as described previously by Randakova et al.[33]. […] The medium was supplemented with 5 mM butyrate for the last 24 h of culture to increase receptor expression. Cells were washed with (phosphate-buffered saline (PBS), mechanically harvested by scraper and centrifugated 1000 × g for 5 min. Cell pellets were kept at − 80 °C.
(§2) Membranes were prepared as described previously by Randakova et al.[33]. Cells harvested from twenty 100 mm petri dishes (CHO) or 30 ml of cell suspension (Sf9) were suspended in 20 ml of ice-cold incubation medium (100 mM NaCl, 20 mM Na-HEPES, 10 mM MgCl2, pH 7.4) supplemented with 10 mM EDTA and homogenized on ice by two 30‐s strokes using a Polytron homogenizer (Ultra-Turrax; Janke & Kunkel GmbH & Co. KG, IKA-Labortechnik, Staufen, Germany) with a 30 s pause between strokes. Cell homogenates were centrifuged for 5 min at 1000×g to remove whole cells and cell nuclei. The resulting supernatants were centrifuged for 30 min at 30,000×g. Pellets were suspended in a fresh incubation medium, incubated on ice for 30 min, and centrifuged again. The resulting membrane pellets were kept at − 80 °C until assayed within 10 weeks.
(§3) Non-specific binding was determined in the presence of 10 μM unlabelled atropine. Incubations were terminated by filtration through filtration plates multiscreen 96 well Harvest (Merck Millipore) using a Brandel cell harvester (Brandel, Gaithersburg, MD, USA). Filtration plates were dried in a microwave oven, and then 40 μl of liquid scintillator Rotiscint eco plus (Roth) was added. The filtration plates were counted in the Microbeta scintillation counter (PerkinElmer). […] The inhibition constant KI was calculated according to Eq. (2).
(§4) Inhibition constants KI were calculated according to Eq. (2).2 KI=IC50/1+D/KD where IC50 is calculated according to Eq.

M4 muscarinic receptor = target: T2, M4 muscarinic receptor (Homo sapiens, UniProt P08173); assay: [3H]NMS competition binding, membranes from CHO cells expressing M4
T2 construct: membranes
T2 sequence (P08173 1-479): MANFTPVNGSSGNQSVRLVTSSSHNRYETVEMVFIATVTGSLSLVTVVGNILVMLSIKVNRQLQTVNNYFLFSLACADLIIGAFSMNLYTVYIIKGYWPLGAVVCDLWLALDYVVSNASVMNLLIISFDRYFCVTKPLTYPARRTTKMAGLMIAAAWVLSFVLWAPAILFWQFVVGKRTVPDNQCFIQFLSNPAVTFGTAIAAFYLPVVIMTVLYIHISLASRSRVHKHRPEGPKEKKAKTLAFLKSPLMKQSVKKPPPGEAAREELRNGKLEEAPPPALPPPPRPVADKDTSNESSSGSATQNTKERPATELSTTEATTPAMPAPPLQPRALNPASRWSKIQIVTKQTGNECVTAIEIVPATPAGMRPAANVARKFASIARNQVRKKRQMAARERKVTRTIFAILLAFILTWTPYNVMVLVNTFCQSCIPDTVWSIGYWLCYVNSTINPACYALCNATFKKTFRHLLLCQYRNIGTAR
Protocol: as §1, §2, §3, §4

M5 muscarinic receptor = target: T3, M5 muscarinic receptor (Homo sapiens, UniProt P08912); assay: [3H]NMS competition binding, membranes from CHO cells expressing M5
T3 construct: membranes
T3 sequence (P08912 1-532): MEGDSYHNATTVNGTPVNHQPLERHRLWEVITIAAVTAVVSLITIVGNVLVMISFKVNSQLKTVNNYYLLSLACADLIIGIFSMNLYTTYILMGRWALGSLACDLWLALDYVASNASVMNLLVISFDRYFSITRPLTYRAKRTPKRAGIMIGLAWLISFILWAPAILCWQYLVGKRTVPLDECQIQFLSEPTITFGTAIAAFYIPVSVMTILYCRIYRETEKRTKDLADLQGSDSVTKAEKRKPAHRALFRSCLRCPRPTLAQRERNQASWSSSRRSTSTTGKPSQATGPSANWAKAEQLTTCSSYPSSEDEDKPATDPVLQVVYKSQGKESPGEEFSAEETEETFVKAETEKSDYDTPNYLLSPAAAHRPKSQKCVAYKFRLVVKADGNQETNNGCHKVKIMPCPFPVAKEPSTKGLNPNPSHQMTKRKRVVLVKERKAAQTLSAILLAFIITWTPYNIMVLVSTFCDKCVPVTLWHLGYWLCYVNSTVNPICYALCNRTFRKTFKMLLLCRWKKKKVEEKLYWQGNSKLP
Protocol: as §1, §2, §3, §4

M3 receptor = M3 receptor (Homo sapiens, UniProt P20309); assay: BRET real-time monitoring of G-protein activation via M3 in HEK293T/17 cells; type: cell-based; parameters: expressed in transfected cells; host or cells: HEK293T/17 cells, transient transfection; conditions: for Activation of Gαq/11 types: saturating concentration (100 μM; 1 mM for JB-12-2, JB-13-1); for Response at Gα15: saturating concentration
Sequence of M3 receptor (P20309 whole entry): as the sequence (P20309 whole entry) above
Protocol: HE/K293T17 cells were obtained from The Global Bioresource Center ATCC (Manassas, VA, USA). Cells were grown in 100 mm petri dishes in Dulbecco’s modified Eagle’s medium (DMEM) supplemented with 10% fetal bovine serum (FBS), MEM non-essential amino acids, 1 mM sodium pyruvate, and antibiotics (100 units/ml penicillin and 100 μg/ml streptomycin) at 37 °C in a humidified incubator containing 5% CO2[41]. Transfection was performed according to Masuho et al.[41]. […] Gα14 subunit was co-transfected with Ric-8A chaperone (0.21 μg). Cells were cotransfected with a pcDNA3.1 construct encoding the catalytic subunit of pertussis toxin (PTX-S1) (0.21 μg) and constructs encoding Gα15, Gα14, Gα11, Gαq to ensure that the small BRET signals were not contaminated by the possible recruitment of endogenous Gαi/o proteins. The empty vector pcDNA3.1 was used to normalize the amount of DNA in each transfection.
To examine the activation of G-protein signalling in live cells, agonist-dependent cellular measurements of BRET between Venus-Gβ1γ2 and masGRK3ct-Nluc were performed as described by Masuho et al.[41]. […] Cells were harvested by centrifugation at 500×g for 5 min and were resuspended in BRET buffer. About 50,000 to 100,000 cells per well were distributed in 96-well flat-bottomed white microplates (Greiner Bio-One) in a volume of 25 µl. […] BRET measurements were made with a microplate reader (POLARstar Omega, BMG Labtech) equipped with two emission photomultiplier tubes, which enabled the detection of two emissions simultaneously with the highest possible resolution of 20 ms per data point. All measurements were performed at room temperature. […] The average baseline value (basal BRET ratio) recorded before stimulation of cells with an agonist was subtracted from the experimental BRET signal values to obtain the ΔBRET ratio.

| Ki (M4 muscarinic receptor; M4, competition with [3H]NMS, mean ± SD, three experiments, read-out: Binding affinity, negative logarithm of Ki (converted)) [µM] | Ki (M5 muscarinic receptor; M5, competition with [3H]NMS, mean ± SD, three experiments, read-out: Binding affinity, negative logarithm of Ki (converted)) [µM] | Response at Gα14 (M3 receptor; 100 μM) | Compound | Ki (M3 muscarinic receptor) [µM] | Ki (M4 muscarinic receptor) [µM] | Ki (M5 muscarinic receptor) [µM] | Activation of Gαq/11 types (M3 receptor) | Response at Gα15 (M3 receptor) | Activation magnitude at Gq, % of CBC (M3 receptor; 100 μM) |
| --- | --- | --- | --- | --- | --- | --- | --- | --- | --- |
|  |  |  | c1csc(C[N+]23CCC(CC2)CC3)c1 [JB-8A] | 14.8 | 4.57 | 9.33 | did not activate any Gαq/11 type |  |  |
|  |  |  | C[N+]1(Cc2cccs2)CCOCC1 [JB-12-2] | 93.3 | 17 | 112 | activated all Gαq/11 types | activated |  |
| 77.6 | 468 |  | COC(=O)C1=CCCN(Cc2cccs2)C1 [JB-13-1] | 355 |  |  | did not activate any Gαq/11 type |  |  |
|  |  | weak response | C[N+]1(Cc2cccs2)CC=CCC1 (centres unmarked) [JR-6, 1-methyl-1-[(thiophen-2-yl)methyl]-1,2,3,6-tetra hydropyridin-1-ium] |  |  |  |  | no response | approximately 30% |
|  |  |  | C[N+]1(Cc2ccc(Cl)s2)CC=CCC1 (centres unmarked) [PN-152, 1-[(5-chlorothiophen-2-yl)methyl]-1-methyl-1,2,3,6-tetrahydropyridin-1-ium] |  |  |  |  |  | 10% |
